Measurements from PMC10620772, “Design, synthesis, and biological evaluation of new pyrimidine-5-carbonitrile derivatives as novel anti-cancer, dual EGFR^WT/COX-2 inhibitors with docking studies” (RSC Advances, 2023).

Columns and labels:
Experiment in all cases: NCI60 antitumor screening
Assay type in all cases: cell-based, human
CAKI-1 = settings: 10 μM one-dose
HOP-92 = settings: 10 μM one-dose
MCF7 = settings: 10 μM one-dose
SF-268 = settings: 10 μM one-dose
HCC-2998 = settings: 10 μM one-dose
RPMI-8226 = settings: 10 μM one-dose
SNB-19 = settings: 10 μM one-dose
DU-145 = settings: 10 μM one-dose
HL-60(TB) = settings: 10 μM one-dose
UACC-257 = settings: 10 μM one-dose
OVCAR-3 = settings: 10 μM one-dose
MOLT-4 = settings: 10 μM one-dose
M14 = settings: 10 μM one-dose
ACHN = settings: 10 μM one-dose
MDA-MB-468 = settings: 10 μM one-dose
CCRF-CEM = settings: 10 μM one-dose
UACC-62 = settings: 10 μM one-dose
SN12C = settings: 10 μM one-dose
A549/ATCC = settings: 10 μM one-dose
SK-OV-3 = settings: 10 μM one-dose
IGROV1 = settings: 10 μM one-dose
SK-MEL-5 = settings: 10 μM one-dose
NCI-H23 = settings: 10 μM one-dose
RXF 393 = settings: 10 μM one-dose
PC-3 = settings: 10 μM one-dose
786–0 = settings: 10 μM one-dose
TK-10 = settings: 10 μM one-dose
HT29 = settings: 10 μM one-dose
SK-MEL-2 = settings: 10 μM one-dose
KM12 = settings: 10 μM one-dose
SNB-75 = settings: 10 μM one-dose, Table 1
UO-31 = settings: 10 μM one-dose
NCI-H522 = settings: 10 μM one-dose
NCI-H226 = settings: 10 μM one-dose
OVCAR-8 = settings: 10 μM one-dose
SF-295 = settings: 10 μM one-dose
OVCAR-5 = settings: 10 μM one-dose
BT-549 = settings: 10 μM one-dose
HCT-15 = settings: 10 μM one-dose

Cc1ccc(CSc2nc(-c3ccc(F)cc3)c(C#N)c(N3CCOCC3)n2)cc1 [4d, 4-(4-Fluorophenyl)-2-((4-methylbenzyl)thio)-6-morpholinopyrimidine-5-carbonitrile]
GI% (CAKI-1): 44.00%
GI% (HOP-92): 34.62%
GI% (MCF7): 11.76%
GI% (SF-268): 22.32%
GI% (HCC-2998): — (GI% < 10)
GI% (RPMI-8226): — (GI% < 10)
GI% (SNB-19): 44.48%
GI% (DU-145): — (GI% < 10)
GI% (HL-60(TB)): — (GI% < 10)
GI% (UACC-257): 17.42%
GI% (OVCAR-3): — (GI% < 10)
GI% (MOLT-4): — (GI% < 10)
GI% (M14): — (GI% < 10)
GI% (ACHN): 37.30%
GI% (MDA-MB-468): — (GI% < 10)
GI% (CCRF-CEM): — (GI% < 10)
GI% (UACC-62): 22.83%
GI% (SN12C): — (GI% < 10)
GI% (A549/ATCC): 24.90%
GI% (SK-OV-3): 11.69%
GI% (IGROV1): — (GI% < 10)
GI% (SK-MEL-5): 10.99%
GI% (NCI-H23): — (GI% < 10)
GI% (RXF 393): 48.96%
GI% (RXF 393; Table 1): — (GI value > 70%)
GI% (PC-3): — (GI% < 10)
GI% (786–0): 55.92%
GI% (786–0; Table 1): — (GI value > 70%)
GI% (TK-10): — (GI% < 10)
GI% (HT29): — (GI% < 10)
GI% (SK-MEL-2): — (GI% < 10)
GI% (KM12): — (GI% < 10)
GI% (SNB-75): 88.04%
GI% (UO-31): 10.06%
GI% (NCI-H522): 44.57%
GI% (NCI-H226): 21.35%
GI% (NCI-H226; Table 1): — (GI value > 70%)
GI% (OVCAR-8): 23.86%
GI% (SF-295): 32.25%
GI% (OVCAR-5): — (GI% < 10)
GI% (BT-549): 11.94%
GI% (HCT-15): — (GI% < 10)
